Measurements taken from ChEMBL document CHEMBL1152256, “Synthesis of Arabino glycosyl triazoles as potential inhibitors of mycobacterial cell wall biosynthesis” (2008).
In brackets after ≈: the same amount, converted by molar mass. Activity calls are given as the source filed them. The rule behind the calls is not given here.

These compounds were tested on Mycobacterium tuberculosis (assay: Antimycobacterial activity against Mycobacterium bovis BCG by alamar blue assay). Conditions: variant bovis BCG.
Assay type: functional

Q: How did the MIC turn out when `NNC(=O)c1ccncc1` [ISONIAZID] was run?
A: 0.1 µg/mL (≈ 0.729 µM)

Q: With `CCCCCCc1cn([C@@H]2O[C@H](CO)[C@@H](O)[C@@H]2O)nn1` as the compound, how does the MIC read?
A: 500 µg/mL (≈ 1750 µM)

Q: How did the MIC turn out when `CCCCCCCCCCCCCCOCc1cn([C@@H]2O[C@H](CO)[C@@H](O)[C@@H]2O)nn1` was run?
A: 31 µg/mL (≈ 72.5 µM)

Q: Which MIC does the source give for `CCCCCCCCc1cn([C@@H]2O[C@H](CO)[C@@H](O)[C@@H]2O)nn1` here?
A: 62 µg/mL (≈ 198 µM)

Q: Which MIC does the source give for `CC(C)=CCC/C(C)=C/CC/C(C)=C/COCc1cn([C@@H]2O[C@H](CO)[C@@H](O)[C@@H]2O)nn1` here?
A: 62 µg/mL (≈ 142 µM)

Q: How did the MIC turn out when `CCCCCCCCCCc1cn([C@@H]2O[C@H](CO)[C@@H](O)[C@@H]2O)nn1` was run?
A: 250 µg/mL (≈ 732 µM)

These compounds were tested on Mycobacterium tuberculosis (assay: Antimycobacterial activity against Mycobacterium bovis BCG at 1 mg/mL by alamar blue assay). Conditions: variant bovis BCG.
Assay type: functional, organism-based

Q: `OC[C@H]1O[C@@H](n2cc(-c3ccccc3)nn2)[C@@H](O)[C@@H]1O` was tested. Which Activity did it give?
A: inactive
